In patent publication US11098040B2, “Compounds and methods of use” (Ferro Therapeutics, Inc., priority 2018, dated 2021):
Read-outs that look alike come from different tables or passages of the source.

Key:
[1] = Whole blood stability, mouse; type: in vitro ADME
From the text: (§1) The results of the assay on stability in blood and IC50 values for pancreatic cancer cell line KP4 are given below in Table 24.

KP4 = assay: Cell viability assay (CellTiter Glo), pancreatic ductal adenocarcinoma KP4; type: cell-based, human; details: Homo sapiens
Procedure: (§2) Cell viability assay was performed to assess the potency of the compounds in human cancer cell lines KP4 (pancreatic ductal adenocarcinoma), MiaPaCa-2 (pancreatic carcinoma), AsPC-1 (pancreatic adenocarcinoma, ascites), 143B (osteosarcoma), and SJSA-1 (osteosarcoma). Selected compounds were also assayed in a human breast epithelial cell line MCF-10A, a nontumorigenic cell line as a control to assess differential activity. Cells at a density of 500-5,000 cells/well were seeded in 96-well plates and incubated at 37° C. overnight. A series of 9 different concentrations of compound stocks (500×) were created by 3-fold serial dilution in DMSO. These compounds were further diluted in culture media and then added to cells so that the final DMSO concentration was equal to 0.25% or less. After 96 hours of incubation, 50 μL of CellTiter Glo reagent (Promega) was added to each well and luminescence was measured after 10 minutes using EnVision (PerkinElmer). Compounds titrated from top concentration of up to 30 μM. The select compounds were tested initially from 30 μM as the top concentration in duplicates (range of 4.6 nM-30 μM). […] Luminescence from cells treated with DMSO alone was set as Max and % of inhibition was calculated as follows: Inhibition %=(Max-Sample value)/Max*100. Data was analyzed using XL-fit software (ID Business Solutions Ltd.). IC50, relative IC50, or % of top inhibition was calculated.
as §2, with “in” for “in human”, “line” for “lines”, “adenocarcinoma).” for “adenocarcinoma), MiaPaCa-2 (pancreatic carcinoma), AsPC-1 (pancreatic adenocarcinoma, ascites), 143B (osteosarcoma), and SJSA-1 (osteosarcoma). Selected compounds were also assayed in a human breast epithelial cell line MCF-10A, a nontumorigenic cell line as a control to assess differential activity.”, “1,000-10,000” for “500-5,000”, “All” for “Compounds titrated from top concentration of up to 30 μM. The select”
as §1

[2] = Whole blood stability, human; type: in vitro ADME
From the text: as §1

[3] = KP-4, 96 h, pancreatic cancer cell line KP4, 96 hours, CellTiter Glo, read-out: IC50 μM KP4
[4] = KP-4, Cell Line KP4, read-out: IC50

Compound | Whole Blood Stability % Remaining at 37° C. Mouse ([1]; 0 min) [%] | Whole Blood Stability % Remaining at 37° C. Mouse ([1]; 30 min) [%] | Whole Blood Stability % Remaining at 37° C. Mouse ([1]; 60 min) [%] | IC50 (KP4; [3]) [µM] | Whole Blood Stability % Remaining at 37° C. Human ([2]; 0 min) [%] | Whole Blood Stability % Remaining at 37° C. Human ([2]; 30 min) [%] | Whole Blood Stability % Remaining at 37° C. Human ([2]; 60 min) [%] | IC50 (KP4; [4]) [µM]
COC(=O)[C@H]1Cc2c([nH]c3ccccc23)[C@H](c2ccc(C(=O)NC(C(=O)O)C(C)(C)C)cc2)N1C(=O)CCl (single isomer, unassigned) [Compound 10] | 100.0 | 82.2 | 65.0 | 0.5 to 1 | 100.0 | 84.0 | 54.3 | 
C#CCOC(=O)c1ccc([C@@H]2c3[nH]c4ccccc4c3C[C@H](C(=O)OC)N2C(=O)CCl)cc1 [BXa] | 100.0 | 0.0 | 0.0 | 0.01 to 0.1 | 100.0 | 95.7 | 46.8 | 
COC(=O)[C@H]1Cc2c([nH]c3ccccc23)[C@H](c2ccc(C(=O)OC(C)(C)C)cc2)N1C(=O)CCl [Compound 1] | 100.0 | 59.6 | 46.6 | < 0.01 | 100.0 | 60.5 | 43.0 | 
COC(=O)c1ccc([C@H]2c3[nH]c4ccccc4c3C[C@H](C(=O)OC(C)(C)C)N2C(=O)CCl)cc1 [Compound 2] | 100.0 | 0.1 | 0.1 | 0.01 to 0.1 | 100.0 | 58.5 | 39.4 | 
COC(=O)c1ccc([C@H]2c3[nH]c4ccccc4c3C[C@H](C(=O)O)N2C(=O)CCl)cc1 [Compound 3] | 100 | 51.3 | 23.6 | > 1 | 100 | 43.0 | 29.4 | 
COC(=O)[C@H]1Cc2c([nH]c3ccccc23)[C@H](c2ccc(C(=O)O)cc2)N1C(=O)CCl [Compound 4] | 100.0 | 76.6 | 63.9 | > 1 | 100.0 | 59.3 | 57.9 | 
O=C(O)c1ccc([C@H]2c3[nH]c4ccccc4c3C[C@H](C(=O)O)N2C(=O)CCl)cc1 [Compound 5] | 100.0 | 86.3 | 67.9 | > 1 | 100.0 | 106.3 | 82.0 | 
COC(=O)[C@H]1Cc2c([nH]c3ccccc23)[C@H](c2ccc(C(=O)OC[C@]34C[C@H]5C[C@H](C[C@H](C5)C3)C4)cc2)N1C(=O)CCl [Compound 6] | 100.0 | 12.4 | 4.7 | 0.01 to 0.1 | 100.0 | 54.8 | 33.0 | 
CNC(=O)c1ccc([C@H]2c3[nH]c4ccccc4c3C[C@H](C(=O)OC)N2C(=O)CCl)cc1 [Compound 7] | 100.0 | 68.2 | 48.6 | 0.01 to 0.1 | 100.0 | 60.1 | 44.5 | 
COC(=O)[C@H]1Cc2c([nH]c3ccccc23)[C@H](c2ccc(C(=O)N(C)C)cc2)N1C(=O)CCl [Compound 8] | 100.0 | 53.0 | 30.5 | < 0.01 | 100.0 | 52.0 | 26.5 | 
COC(=O)[C@H]1Cc2c([nH]c3ccccc23)[C@H](c2ccc(C(=O)NC(C)(C)C)cc2)N1C(=O)CCl [Compound 9] | 100.0 | 61.9 | 40.6 | < 0.01 | 100.0 | 53.8 | 47.0 | 
CC(C)(C)OC(=O)[C@H]1Cc2c([nH]c3ccccc23)[C@H](c2ccc([N+](=O)[O-])cc2)N1C(=O)CCl [Compound 11] | 100.0 | 56.9 | 38.6 | 0.01 to 0.1 | 100.0 | 67.1 | 59.9 | 
COC(=O)[C@H]1Cc2c([nH]c3ccccc23)[C@H](c2ccc(OC(C)=O)cc2)N1C(=O)CCl [Compound 12] | 100.0 | 0.0 | 0.0 | 0.01 to 0.1 | 100.0 | 0.0 | 0.1 | 
COC(=O)[C@H]1Cc2c([nH]c3ccccc23)[C@H](c2ccc(OC(=O)C(C)(C)C)cc2)N1C(=O)CCl [Compound 13] | 100.0 | 0.0 | 0.0 | 0.1 to 0.5 | 100.0 | 34.9 | 29.2 | 
COC(=O)[C@H]1Cc2c([nH]c3ccccc23)[C@@H](c2ccc(OC(=O)C(C)(C)C)cc2)N1C(=O)CCl [Compound 13a] | 100.0 | 0.0 | 0.0 | 0.5 to 1 | 100.0 | 56.6 | 59.9 | 
CN(C)C(=O)[C@H]1Cc2c([nH]c3ccccc23)[C@@H](c2ccc(C(=O)OC(C)(C)C)cc2)N1C(=O)CCl [Compound 21a] |  |  |  | 0.1 to 0.5 |  |  |  | 
CN(C)C(=O)[C@H]1Cc2c([nH]c3ccccc23)[C@H](c2ccncc2)N1C(=O)CCl [Compound 50] |  |  |  | 0.1 to 0.5 |  |  |  | 
[2H]C([2H])(Cl)C(=O)N1[C@@H](c2ccc(C(=O)OC)cc2)c2[nH]c3ccccc3c2C[C@@H]1C(=O)OC [Compound 90] |  |  |  | < 0.01 |  |  |  | 
C[C@H]1Cc2c([nH]c3ccccc23)[C@@H](c2ccc(N3CCN(C)CC3)cc2)N1C(=O)OCl [Compound 105] |  |  |  | 0.5 to 1 |  |  |  | 
C[C@H]1Cc2c([nH]c3ccccc23)[C@H](c2ccc([Si](C)(C)C)cc2)N1C(=O)CCl [Compound 106] |  |  |  | < 0.01 |  |  |  | 
C[C@H]1Cc2c([nH]c3ccccc23)[C@@H](c2ccc([Si](C)(C)C)cc2)N1C(=O)CCl [Compound 107] |  |  |  | > 1 |  |  |  | 
C[C@H]1Cc2c([nH]c3ccccc23)[C@H](c2ccc(C3CC3)cc2)N1C(=O)CCl [Compound 108] |  |  |  | < 0.01 |  |  |  | 
[2H]C([2H])(Cl)C(=O)N1[C@@H](c2ccc(S(=O)(=O)NC34CC5CC(CC(C5)C3)C4)cc2)c2[nH]c3ccccc3c2C[C@@H]1C(=O)OC [Compound 251] |  |  |  |  |  |  |  | 0.0065
COC(=O)c1ccc([C@H]2c3[nH]c4ccc(OC)cc4c3C[C@H](C(=O)OC)N2C(=O)CCl)cc1 [Compound 277] |  |  |  |  |  |  |  | 0.036
